Laboratory results published in patent US9119881B2, “Method of synergistically enhancing the therapeutic efficacy and safety of medication through a combination therapy” (priority 2010, dated 2015).
Marks after values point to notes of the source that are not given here.

What was measured:
[1] = system: human aorta endothelial cells (HAECs); assay: Intracellular cAMP assessment in HAECs; type: cell-based; details: 5 min stimulation, beginning at 0.1 uM ABA
Protocol: These cells were serum-starved using HBSS buffer for 30 min and then stimulated with various concentrations of abscisic acid (ABA) or Forskolin (forsk, 1 uM) for 5 minutes. After removing supernatant, cells were lysed with 0.1 M HCL to measure nonacetylated cAMP. Results (pmol/ml) from four independent experiments are depicted. Data are represented as mean±standard error.
Confluent human aorta endothelial cells (HAECs) were serum-starved using HBSS buffer for 30 min, then stimulated with various concentration of ABA and Forskolin (1 uM) for 5 min, after removing supernatant, cells were lysed with 0.1 M HCL to measure non-acetylated cAMP using a commercially available kit (Cayman chemical) following the manufacturer's instructions. Results (pmol/mL) were obtained from four independent experiments. For nitric oxide (NO), confluent HAECs were serum-starved for 30 min by using HBSS buffer, then treated with ABA for 15 min. Supernatant was used to measure NO using an fluorescent kit.

[2] = Systolic blood pressure in ApoE-deficient mice; type: in vivo
[3] = Dietary ABA and rosiglitazone in obese db/db mice: body and organ weights; type: in vivo; details: db/db mice, ABA 100 mg/kg diet, day 60
Protocol: Twelve-fifteen week-old BKS.Cg-+Lepr^db/+Lepr^db/OlaHsd (db/db) mice were housed at the animal facilities at Virginia Polytechnic Institute and State University in a room maintained at 75° F., with a 12:12 h light-dark cycle starting from 6:00 AM. All experimental procedures were approved by the Institutional Animal Care and Use Committee of Virginia Polytechnic Institute and State University and met or exceeded requirements of the Public Health Service, National Institutes of Health and the Animal Welfare Act. […] Louis, Mo.) for 60 days. Mice were weighed and fasting (12 h) blood glucose levels were taken weekly. Blood glucose levels were assessed with an ACCU-CHEK® Glucometer (Roche, Indianapolis, Ind.). […] On day 60 mice were sacrificed by CO2 narcosis with secondary thoracotomy. Abdominal WAT, inguinal subcutaneous WAT, and liver were then excised and weighed. Abdominal and subcutaneous WAT were then digested and fractionated.

F4/80+CD11b+ macrophages = assay: Macrophage infiltration into white adipose tissue of db/db mice, flow cytometry; type: in vivo; details: day 60
Protocol: Obese db/db mice were fed high-fat diets containing 0, 15, or 70 mg/kg diet rosiglitazone maleate (control, Ros^lo, and Ros^hi, respectively) with and without racemic ABA (100 mg/kg diet). On day 60 the percent of F4/80+CD11b+ in the stromal vascular fractions of abdominal white adipose tissue (Ab. WAT) (A) and subcutaneous WAT (B) were assessed by flow cytometry. The percent of CD11b+CCR2+ monocytes (C) and CD4+CD25+FoxP3+ Tregs (D) in blood were assessed in whole blood. The expressions of the M1 marker CCL17 (E) and peroxisome proliferator activated receptor γ (PPAR γ) (F) in Ab. WAT were calculated as a ratio to the housekeeping gene f3-actin. Data are represented as mean±standard error.
Mice (n=40) were fed one of six experimental diets: a control high-fat diet (control), a high-fat diet containing low dose rosiglitazone maleate (Ros^lo, 10 mg/kg diet), or a high-fat diet containing a high dose of rosiglitazone maleate (Ros^hi, 70 mg/kg diet), each with or without all racemic ABA (100 mg/kg, Sigma Aldrich, St. Louis, Mo.) for 60 days. […] Blood glucose levels were assessed with an ACCU-CHEK® Glucometer (Roche, Indianapolis, Ind.). An intraperitoneal glucose tolerance test (IPGTT, 1 g glucose/kg body weight) was conducted on fasted mice (12 h) for 0, 30, 90, and 180 minute time points and insulin levels were measured on day 54. […]

[4] = mice fed ABA at doses ranging from 100 to 800 mg/kg of diet [44]; cited from earlier work

Question: With `CC1=CC(=O)CC(C)(C)C1(O)/C=C/C(C)=C\C(=O)O` (racemic) [ABA, abscisic acid] as the compound, how does the “intracellular cAMP concentration” value [1] read?
Answer: significantly increased

Question: What about the systolic blood pressure [2] of the same compound?
Answer: lowers

Question: What about the “Ab. WAT % Body Weight” value ([3]; no rosiglitazone) of the same compound?
Answer: 4.7 ± 0.68^a % Body Weight

Question: What about the “Sc. WAT % Body Weight” value ([3]; no rosiglitazone) of the same compound?
Answer: 2.8 ± 0.48 % Body Weight

Question: And the “Ab. WAT as percent body weight (in words)” value ([3]; Ros^hi)?
Answer: significantly and independently reduced

Question: What about the “inguinal SCAT weight (in words)” value ([3]; Ros^hi) of the same compound?
Answer: little affect

Question: And the “ATM infiltration in SCAT” value (F4/80+CD11b+ macrophages; db/db mice fed the control and Ros^lo diets)?
Answer: significantly reduced

Question: What about the “macrophage (ATM) infiltration into Ab. WAT” value (F4/80+CD11b+ macrophages; db/db mice, ABA 100 mg/kg diet, Ros^lo, or both, relative to the control diet) of the same compound?
Answer: little effect

Question: And the side-effects [4]?
Answer: no detectable side-effects
